Assay results as given in publication PMC10533412, “Phosphoantigens glue butyrophilin 3A1 and 2A1 to activate Vγ9Vδ2 T cells” (Nature, 2023).

Columns and labels:
[1] = test system: Vγ9Vδ2 T cells; conditions: cited from earlier work
[2] = test system: BTN2A−/− MIA PaCa-2 (BTN2A1/BTN2A2 KO) cells; experiment: IFNγ release from Vγ9Vδ2 T cells in response to zoledronate stimulation of BTN2A−/− MIA PaCa-2 cells expressing BTN2A1 variants; format: cell-based, human; design: unit not given here; conditions: 6 values
[3] = test system: MIA PaCa-2 cells; experiment: AFM-SCFS binding force between a Vγ9Vδ2 T cell and a MIA PaCa-2 cell; format: cell-based, human; design: binding force, Mean, Fig. 6b / binding force, Median, Fig. 6b: unit not given here; conditions: second panel (Ctrl, ZOL, HMBPP-15, HMBPP-15+ZOL)
Method: The AFM-SCFS analysis procedure was performed using the JPK CellHesion unit as previously described, and closely followed our previously reported protocol for APCs[4]. […] The glass disks were quickly transferred to an AFM adapter with immediate addition of 1 ml of fresh medium (DMEM: 10% FBS and 1% penicillin–streptomycin). […] The raw data were normalized to the background readings. Blank readings for each set of affinity measurements (Vγ9Vδ2 T cells touching the glass surface) were collected immediately before each assay to perform background subtraction. All data were analysed using the JPK image processing software. […] The following steps were the same as described above.

[4] = test system: BTN3A1+CD80+ CHO-K1 cells; experiment: TNF secretion by Vγ9Vδ2 T cells co-cultured with zoledronate-treated BTN3A1+CD80+ CHO-K1 cells; format: cell-based, Chinese hamster; conditions: Fig. 3c, ii
Method: (§1) BTN2A^−/− MIA PaCa-2 (BTN2A1/BTN2A2 KO) cells were plated at 1.0 × 10^4 cells per well in 96-well plates 1 day before transfection. […] The medium was then aspirated and cells were washed four times with PBS at room temperature. Vγ9Vδ2 T cells (1.0 × 10^5 cells per well) were then added and cocultured with MIA PaCa-2 cells, and culture supernatants were collected after 16 h and assayed for TNF levels using a TNF human uncoated ELISA kit (Invitrogen). The assay of CHO-K1 cells (infected with lentivirus of BTN3A1 and CD80) was performed according to the same methods as for the MIA PaCa-2 cells[22],[23].

[5] = test system: BTN2A−/− MIA PaCa-2 (BTN2A1/BTN2A2 KO) cells; experiment: TNF secretion by Vγ9Vδ2 T cells co-cultured with zoledronate-treated BTN2A−/− MIA PaCa-2 cells expressing BTN2A1 variants; format: cell-based, human; conditions: n=6
Method: as §1

In the case of Cc1ccc(C/C(=C\COP(=O)(O)OP(=O)(O)O)CO)cc1 [HMBPP-08, (E)-4-hydroxy-3-(4-methylbenzyl)but-2-enyl diphosphate], the “γδ T cell activation” value [1] is listed as “do not efficiently activate”.

For O=P(O)(O)C(O)(Cn1ccnc1)P(=O)(O)O [Zoledronate], the “Mean (Extended Data Fig. 7b)” value ([2]; NT cells) was 2.056, the “Mean (Extended Data Fig. 7b)” value ([2]; cells expressing BTN2A1 E286G) was 48.61 and the “Mean (Extended Data Fig. 7b)” value ([2]; cells expressing BTN2A1 E300G) was 78.93. For the same compound, the “Mean (Extended Data Fig. 7b)” value ([2]; cells expressing BTN2A1 E307G) was 40.34, the “Mean (Extended Data Fig. 7b)” value ([2]; cells expressing BTN2A1 E316G) was 128.5 and the “Mean (Extended Data Fig. 7b)” value ([2]; cells expressing BTN2A1 F324G) was 95.24. For the same compound, the “Mean (Extended Data Fig. 7b)” value ([2]; cells expressing BTN2A1 K276G) was 55.14, the “Mean (Extended Data Fig. 7b)” value ([2]; cells expressing BTN2A1 K283G) was 42.21 and the “Mean (Extended Data Fig. 7b)” value ([2]; cells expressing BTN2A1 K304G) was 117. The “Mean (Extended Data Fig. 7b)” value ([2]; cells expressing BTN2A1 K311G) was 59.44, the “Mean (Extended Data Fig. 7b)” value ([2]; cells expressing BTN2A1 L272G) was 81.83 and the “Mean (Extended Data Fig. 7b)” value ([2]; cells expressing BTN2A1 L279G) was 16.84. For the same compound, the “Mean (Extended Data Fig. 7b)” value ([2]; cells expressing BTN2A1 L294G) was 44.72, the “Mean (Extended Data Fig. 7b)” value ([2]; cells expressing BTN2A1 L297G) was 44.28 and the “Mean (Extended Data Fig. 7b)” value ([2]; cells expressing BTN2A1 L314G) was 23.31. The “Mean (Extended Data Fig. 7b)” value ([2]; cells expressing BTN2A1 L318G) was 13.17, the “Mean (Extended Data Fig. 7b)” value ([2]; cells expressing BTN2A1 L325C/A327C) was 59.39 and the “Mean (Extended Data Fig. 7b)” value ([2]; cells expressing BTN2A1 L325G) was 7.962. For the same compound, the “Mean (Extended Data Fig. 7b)” value ([2]; cells expressing BTN2A1 R290A) was 84.46, the “Mean (Extended Data Fig. 7b)” value ([2]; cells expressing BTN2A1 W320A) was 70.37 and the “Mean (Extended Data Fig. 7b)” value ([2]; cells expressing BTN2A1 WT) was 151.4. The “binding force, Mean, Fig. 6b” value [3] was 1524, the “binding force, Median, Fig. 6b” value [3] was 1525 and the “TNF secretion by Vγ9Vδ2 T cells, Mean” value ([4]; zoledronate-treated cells expressing BTN2A1 D455G/E457R, n=6) was 11.14. The “TNF secretion by Vγ9Vδ2 T cells, Mean” value ([4]; zoledronate-treated cells expressing BTN2A1 R477A, n=6) was 8.53, the “TNF secretion by Vγ9Vδ2 T cells, Mean” value ([4]; zoledronate-treated cells expressing BTN2A1 T510A, n=6) was 7.472 and the “TNF secretion by Vγ9Vδ2 T cells, Mean” value ([4]; zoledronate-treated cells expressing BTN2A1 T510M, n=6) was 7.874. The “TNF secretion by Vγ9Vδ2 T cells, Mean” value ([4]; zoledronate-treated cells expressing BTN2A1 V511A, n=6) was 10.17, the “TNF secretion by Vγ9Vδ2 T cells, Mean” value ([4]; zoledronate-treated cells expressing BTN2A1 V511D, n=6) was 6.367 and the “TNF secretion by Vγ9Vδ2 T cells, Mean” value ([4]; zoledronate-treated cells expressing BTN2A1 V511W, n=6) was 8.466. The “TNF secretion by Vγ9Vδ2 T cells, Mean” value ([4]; zoledronate-treated cells expressing BTN2A1 WT, n=5) was 465.4, the “TNF secretion by Vγ9Vδ2 T cells, Mean” value ([4]; zoledronate-treated cells expressing BTN2A1 ∆C, n=6) was 7.982 and the “TNF secretion by Vγ9Vδ2 T cells, Mean” value ([4]; zoledronate-treated cells, NT, n=6) was 20.41. The “TNF secretion by Vγ9Vδ2 T cells, Mean” value ([5]; Fig. 3c, i, zoledronate-treated cells expressing BTN2A1 D455G/E457R) was 6.214, the “TNF secretion by Vγ9Vδ2 T cells, Mean” value ([5]; Fig. 3c, i, zoledronate-treated cells expressing BTN2A1 R477A) was 8.398 and the “TNF secretion by Vγ9Vδ2 T cells, Mean” value ([5]; Fig. 3c, i, zoledronate-treated cells expressing BTN2A1 T510A) was 6.658. For the same compound, the “TNF secretion by Vγ9Vδ2 T cells, Mean” value ([5]; Fig. 3c, i, zoledronate-treated cells expressing BTN2A1 T510M) was 7.401, the “TNF secretion by Vγ9Vδ2 T cells, Mean” value ([5]; Fig. 3c, i, zoledronate-treated cells expressing BTN2A1 V511A) was 7.427 and the “TNF secretion by Vγ9Vδ2 T cells, Mean” value ([5]; Fig. 3c, i, zoledronate-treated cells expressing BTN2A1 V511D) was 6.982. The “TNF secretion by Vγ9Vδ2 T cells, Mean” value ([5]; Fig. 3c, i, zoledronate-treated cells expressing BTN2A1 V511W) was 7.617, the “TNF secretion by Vγ9Vδ2 T cells, Mean” value ([5]; Fig. 3c, i, zoledronate-treated cells expressing BTN2A1 WT) was 158.2 and the “TNF secretion by Vγ9Vδ2 T cells, Mean” value ([5]; Fig. 3c, i, zoledronate-treated cells expressing BTN2A1 ∆C) was 9.364. For the same compound, the “TNF secretion by Vγ9Vδ2 T cells, Mean” value ([5]; Fig. 3c, i, zoledronate-treated cells, NT) was 7.859, the “TNF secretion by Vγ9Vδ2 T cells, Mean” value ([5]; Fig. 3d, zoledronate-treated cells expressing BTN2A1 H471G/I472A/Y473A) was 9.274 and the “TNF secretion by Vγ9Vδ2 T cells, Mean” value ([5]; Fig. 3d, zoledronate-treated cells expressing BTN2A1 R449A/R469A) was 16.58. For the same compound, the “TNF secretion by Vγ9Vδ2 T cells, Mean” value ([5]; Fig. 3d, zoledronate-treated cells expressing BTN2A1 WT) was 182.7, the “TNF secretion by Vγ9Vδ2 T cells, Mean” value ([5]; Fig. 3d, zoledronate-treated cells expressing BTN2A1 Y464A-T474A) was 9.364 and the “TNF secretion by Vγ9Vδ2 T cells, Mean” value ([5]; Fig. 3d, zoledronate-treated cells expressing BTN2A1 ∆C) was 0.6146. For the same compound, the “TNF secretion by Vγ9Vδ2 T cells, Mean” value ([5]; Fig. 3d, zoledronate-treated cells, NT) was 9.612.
